Columns and labels:
TNF = TNF production in BMDCs, intracellular staining, flow cytometry; format: cell-based, mouse; details: 1 mM TDMM 24 hours, LPS (1 ug/ml) 4 hours
Experimental: Intracellular staining was performed to assess TNF production.
Intracellular staining was performed to assess TNF (FIG. 3A) and IL-12 (FIG. 3B) production.
Briefly, bone marrow was harvested from femurs of mice and cultured for 7 days in the presence of DC-skewing cytokines, GM-CSF and IL-4. […] The pro-inflammatory cytokines, IL-6 and IL-12, were specifically queried. […] Immune cells communicate largely through the production of soluble factors including cytokines, and DCs detect these signals and determine their effector functions accordingly.
(§1) The inventors performed a series of assays where bone marrow derived macrophages (BMDMs), bone marrow derived dendritic cells (BMDCs), and splenic dendritic cells (splenic DCs), were exposed to a series of TDMMs, including indole, indole-3-acetate (I3AT), 5-hydroxyindole (5HI), and indole-3-pyruvate (I3P), as well as indole-3-carbinol (I3C; a plant derived compound) to be used for a positive control (1 mM for 24 hours). The BMDMs and BMDCs were stimulated with LPS for 4 hours and assayed at day 7 for expression of various pro-inflammatory cytokines. In a similar assay, the BMDMs and BMDCs were stimulated with LPS or CpG, respectively, for 15 minutes and assayed for pAKT and pERK signaling, which is a reflection of pro-inflammatory response.

Akt = experiment: phospho-Akt in BMDCs, flow cytometry; format: cell-based, mouse
Experimental: Flow cytometric analysis was performed on BMDCs conditioned with indole from day 3 of culture and subsequently stimulated with LPS (5 ug/ml) for the given times. Cells were stained for phospho-Akt and analyzed by flow cytometry.
Flow cytometric analysis was performed on BMDCs from WT or AhrKO mice cultured in the presence of indole (1 mM) from day 3. DCs were stimulated with LPS (5 ug/ml) for the given times and stained for phospho-Akt, which was detected by flow cytometry. Percentage of pAkt-positive DCs indicated. Representative data is from one of three independent experiments.
Another central mediator of cellular signaling is the serine/threonine kinase, Akt (also referred to as protein kinase B), which regulates cellular processes including metabolism, growth, proliferation, and survival. The Akt pathway is activated by numerous receptor tyrosine kinases, cytokine receptors, G-protein-coupled receptors, and other molecules which activate the lipid kinase PI3K and result in production of phosphatidylinositol (3,4,5)-trisphosphate (PIPS). This second messenger acts as a docking site at the plasma membrane for Akt where phosphorylation and activation occurs. Akt is located upstream of NF-kB and can induce NF-kB signaling via phosphorylation of IKKα and Tp12. The effect of indole on Akt phosphorylation was assessed to determine whether indole's inhibition of NF-kB might be a secondary effect due to modulation of an upstream target.
as §1

CCR9 = CCR9 surface expression on BMDCs; format: cell-based, mouse; details: BMDCs cultured from day 3 with indole (1 mM) or retinoic acid (1 μM), day 7
Experimental: FIGS. 12A and 12B graphically illustrate that indole induces CCR9 and B220 on DCs. BMDCs were cultured in the presence of indole (1 mM), retinoic acid (1 μM), or DMF solvent control from day 3. On day 7, DCs were surface stained for expression of CCR9 and B220 and analyzed by flow cytometry. […] Mean of three independent experiments. * indicates p<0.05 for one-way ANOVA followed by Dunnett's post-test.
Dendritic cell subsets bear numerous surface antigens that regulate their migration and localization. Because indole is produced in the gut and appears to induce anti-inflammatory properties in DCs (as described above), it was hypothesized that indole might affect migration and retention in mucosal tissues. Thus, expression of the gut homing marker, chemokine receptor CCR9 was investigated. […] Retinoic acid (RA) was included as a positive control. RA is present in murine plasma at approximately […] and is predicted to exist at higher concentrations in tissue microenvironments in vivo. Thus, 1 uM was used as a conservative estimate of relevant physiological concentration. Indole's effect was even more profound than that of retinoic acid, a known inducer of mucosal homing markers on T cells (see, e.g., Iwata M, et al. (2004) Retinoic Acid Imprints Gut-Homing Specificity on T Cells. Immunity 21(4):527-538). […]

DSS colitis = experiment: BMDC transfer in murine DSS colitis model; format: in vivo, mouse; details: mice transferred i.p. with BMDCs conditioned with indole, 5% DSS day 7-14, endpoint day 20
Experimental: FIGS. 21A and 21B graphically illustrate that the in vivo transfer of indole-conditioned DCs prevented shortening of colon in a murine DSS colitis model. BMDCs were cultured with indole, RA, or DMF from day 3. Two million BMDCs were transferred via i.p. injection to WT C57BL/6 mice on days 0, 6, and 9 of the experiment. Mice received 5% dextran sulfate sodium (DSS) ad libitum in their drinking water from day 7 through day 14. Mice were euthanized on day 20 and colons were immediately removed and measured for length (FIG. 21A) and weight (FIG. 21B). n=4 mice/group. *p<0.05 by one-way ANOVA followed by Dunnett's post-test, comparing to unmanipulated control colons.
A hallmark pathological sign of colitis is shortening of the colon, mediated by abscesses forming in the intestinal crypts that disrupt the mucosal architecture and are later replaced by scar tissue. […] Shortening of the colon is an established indicator of colitis pathology in the murine model of DSS colitis.
BMDCs were cultured with indole, RA, or DMF from day 3 as described above. BMDCs were washed, counted, and resuspended in sterile PBS (Ca—Mg—) for transfer to WT C57BL/6 recipients. Two million BMDCs were transferred via i.p. injection on days 0, 6, and 9 of the experiment. Mice received 5% dextran sulfate sodium (DSS, MW=36,000-50,000; MP Biomedicals) ad libitum in their drinking water from day 7 through day 14. […]

[1] = system: reactive oxygen species (ROS); experiment: Reactive oxygen species production in DC2.4 and BMDC
Experimental: The secretion of reactive oxygen species (ROS) and nitric oxide (NO) was investigated in DC2.4 and BMDC.
Reactive oxygen species production was measured using the CellRox Deep Red Reagent (ThermoFisher). […] Presence of ROS oxidizes the CellRox reagent to a fluorescent state that can be subsequently analyzed via flow cytometry.

c1ccc2[nH]ccc2c1 [Indole, indole]
TNF (TNF): ↓↓
pAKT (Akt; BMDCs, 1 mM TDMM 24 hours, CpG (5 uM) 15 minutes): ↓↓
reduction of phospho-Akt (Akt; BMDCs, 1 mM indole, 30 minutes post-LPS stimulation): over 50%
phospho-Akt in the absence of external stimulation (Akt; BMDCs, indole versus controls, unstimulated): No difference
inhibition of Akt phospho-signaling, WT versus AhR−/− (Akt; indole-DCs generated from WT or AhR−/− bone marrow): nearly equivalent inhibition
surface expression of CCR9 on conditioned DCs (CCR9): 34%
average colon length (DSS colitis): ~6 cm
secretion of reactive oxygen species (ROS) [1]: intact

Reference: US11612586B2, “Indole regulation of antigen presenting cells” (THE TEXAS A&M UNIVERSITY SYSTEM, priority 2016, dated 2023)
